Tested on: MV-4-11 cells
Test: Gene expression microarray analysis (Affymetrix PrimeView) and GSEA
Format: cell-based, human
Set-up: RFU PODN (11730768_x_at) / Fold change /veh PODN (11730768_x_at) / RFU LINC00158 (11744669_a_at) / Fold change /veh LINC00158 (11744669_a_at) / RFU DUSP10 (11751237_a_at) / Fold change /veh DUSP10 (11751237_a_at) / RFU ID3 (11757404_x_at) / Fold change /veh ID3 (11757404_x_at) / RFU PLEKHG5 (11737974_s_at) / Fold change /veh PLEKHG5 (11737974_s_at) / RFU LRRC4B (11730491_at) / Fold change /veh LRRC4B (11730491_at) / RFU GIMAP4 (11747438_a_at) / Fold change /veh GIMAP4 (11747438_a_at) / RFU KRT8 (11758183_x_at) / Fold change /veh KRT8 (11758183_x_at) / RFU CNN1 (11734310_a_at) / Fold change /veh CNN1 (11734310_a_at) / RFU VPS37D (11726825_at) / Fold change /veh VPS37D (11726825_at) / RFU C10orf10 (11716522_x_at) / Fold change /veh C10orf10 (11716522_x_at) / RFU KIR2DL2 /// KIR2DL4 /// KIR2DL5A /// KIR2DL5B /// KIR2DS1 /// KIR2DS2 /// KIR2DS3 /// KIR2DS4 /// KIR3DL3 /// KIR3DL3 /// KIR3DS1 (11738374_at) / Fold change /veh KIR2DL2 /// KIR2DL4 /// KIR2DL5A /// KIR2DL5B /// KIR2DS1 /// KIR2DS2 /// KIR2DS3 /// KIR2DS4 /// KIR3DL3 /// KIR3DL3 /// KIR3DS1 (11738374_at) / RFU C1QL1 (11718748_at) / Fold change /veh C1QL1 (11718748_at) / RFU TMPRSS4 (11747572_a_at) / Fold change /veh TMPRSS4 (11747572_a_at) / RFU HAMP (11756126_x_at) / Fold change /veh HAMP (11756126_x_at) / RFU RNFT2 (11725882_a_at) / Fold change /veh RNFT2 (11725882_a_at) / RFU NR4A2 (11747474_a_at) / Fold change /veh NR4A2 (11747474_a_at) / RFU ABCC12 (11746883_a_at) / Fold change /veh ABCC12 (11746883_a_at) / RFU TMEM136 (11760407_x_at) / Fold change /veh TMEM136 (11760407_x_at) / RFU CLDN22 /// WWC2 (11732394_at) / Fold change /veh CLDN22 /// WWC2 (11732394_at) / RFU HLA-DPB1 (11760878_x_at) / Fold change /veh HLA-DPB1 (11760878_x_at) / RFU SPINT1 (11716480_a_at) / Fold change /veh SPINT1 (11716480_a_at) / RFU GAP43 (11754022_s_at) / Fold change /veh GAP43 (11754022_s_at) / RFU A4GNT (11735810_at) / Fold change /veh A4GNT (11735810_at) / RFU PRB3 (11715151_x_at) / Fold change /veh PRB3 (11715151_x_at) / RFU TUBB4B (11761932_at) / Fold change /veh TUBB4B (11761932_at) / RFU CAPN14 (11732068_a_at) / Fold change /veh CAPN14 (11732068_a_at) / RFU TMCC2 (11721928_a_at) / Fold change /veh TMCC2 (11721928_a_at) / RFU IRGQ (11745062_a_at) / Fold change /veh IRGQ (11745062_a_at) / RFU FAM174B (11720279_a_at) / Fold change /veh FAM174B (11720279_a_at) / RFU TMPRSS4 (11748680_a_at) / Fold change /veh TMPRSS4 (11748680_a_at) / RFU FAM212B (11763350_a_at) / Fold change /veh FAM212B (11763350_a_at) / RFU PLEKHG5 (11743358_a_at) / Fold change /veh PLEKHG5 (11743358_a_at) / RFU ZSCAN30 (11745921_a_at) / Fold change /veh ZSCAN30 (11745921_a_at) / RFU CMKLR1 (11741424_a_at) / Fold change /veh CMKLR1 (11741424_a_at) / RFU LOC101060620 /// MAPK8IP1 (11723275_at) / Fold change /veh LOC101060620 /// MAPK8IP1 (11723275_at) / RFU SPTSSB (11747773_x_at) / Fold change /veh SPTSSB (11747773_x_at) / RFU PRSS12 (11739890_at) / Fold change /veh PRSS12 (11739890_at) / RFU BIN1 (11741810_x_at) / Fold change /veh BIN1 (11741810_x_at) / RFU WNT11 (11732464_a_at) / Fold change /veh WNT11 (11732464_a_at) / RFU C10orf10 (11716521_a_at) / Fold change /veh C10orf10 (11716521_a_at) / RFU C5orf56 (11738089_at) / Fold change /veh C5orf56 (11738089_at) / RFU CYB561 (11721691_x_at) / Fold change /veh CYB561 (11721691_x_at) / RFU ANKRD19P (11752326_a_at) / Fold change /veh ANKRD19P (11752326_a_at) / RFU OR2T12 /// OR2T33 /// OR2T8 (11738714_s_at) / Fold change /veh OR2T12 /// OR2T33 /// OR2T8 (11738714_s_at) / RFU VCAN (11748164_a_at) / Fold change /veh VCAN (11748164_a_at) / RFU JSRP1 (11732532_at) / Fold change /veh JSRP1 (11732532_at) / RFU KRTAP10-11 (11738290_x_at) / Fold change /veh KRTAP10-11 (11738290_x_at) / RFU MYO3A (11730013_a_at) / Fold change /veh MYO3A (11730013_a_at) / RFU EBF3 (11725865_a_at) / Fold change /veh EBF3 (11725865_a_at) / RFU CAMK2N1 (11719241_x_at) / Fold change /veh CAMK2N1 (11719241_x_at) / RFU C5orf56 (11738088_a_at) / Fold change /veh C5orf56 (11738088_a_at) / RFU OLFML3 (11715873_a_at) / Fold change /veh OLFML3 (11715873_a_at) / RFU LOC100653217 /// NTM (11731650_a_at) / Fold change /veh LOC100653217 /// NTM (11731650_a_at) / RFU MAPK11 (11762145_a_at) / Fold change /veh MAPK11 (11762145_a_at) / RFU FIZ1 (11724087_x_at) / Fold change /veh FIZ1 (11724087_x_at) / RFU OASL (11726364_x_at) / Fold change /veh OASL (11726364_x_at) / RFU SOX15 (11748057_x_at) / Fold change /veh SOX15 (11748057_x_at) / RFU CD79A (11719716_a_at) / Fold change /veh CD79A (11719716_a_at) / RFU HIST1H1D (11736915_at) / Fold change /veh HIST1H1D (11736915_at) / RFU CASKIN2 (11723855_a_at) / Fold change /veh CASKIN2 (11723855_a_at) / RFU LOC730098 (11760151_x_at) / Fold change /veh LOC730098 (11760151_x_at) / RFU OR4N2 (11742367_at) / Fold change /veh OR4N2 (11742367_at) / RFU PRRT2 (11749266_a_at) / Fold change /veh PRRT2 (11749266_a_at) / RFU SNX32 (11753110_a_at) / Fold change /veh SNX32 (11753110_a_at) / RFU CDHR5 (11726645_a_at) / Fold change /veh CDHR5 (11726645_a_at) / RFU RCAN1 (11760418_a_at) / Fold change /veh RCAN1 (11760418_a_at) / RFU FAM167A (11723789_a_at) / Fold change /veh FAM167A (11723789_a_at) / RFU FAM26E (11764081_at) / Fold change /veh FAM26E (11764081_at) / RFU ISYNA1 (11749810_s_at) / Fold change /veh ISYNA1 (11749810_s_at) / RFU ACY1 (11761880_at) / Fold change /veh ACY1 (11761880_at) / RFU 11764098_at / Fold change /veh 11764098_at / RFU SAMD14 (11745864_x_at) / Fold change /veh SAMD14 (11745864_x_at) / RFU NPB (11741838_a_at) / Fold change /veh NPB (11741838_a_at) / RFU TMPRSS6 (11731388_a_at) / Fold change /veh TMPRSS6 (11731388_a_at) / RFU KRTAP10-2 (11738614_at) / Fold change /veh KRTAP10-2 (11738614_at) / RFU ARHGAP8 /// PRR5-ARHGAP8 (11727945_x_at) / Fold change /veh ARHGAP8 /// PRR5-ARHGAP8 (11727945_x_at) / RFU KRTAP5-7 /// NADSYN1 (11734609_at) / Fold change /veh KRTAP5-7 /// NADSYN1 (11734609_at) / RFU RASL12 (11751679_a_at) / Fold change /veh RASL12 (11751679_a_at) / RFU CDKN2B (11736163_a_at) / Fold change /veh CDKN2B (11736163_a_at) / RFU PRF1 (11729649_at) / Fold change /veh PRF1 (11729649_at) / RFU, ZNF638 /// ZNF638-IT1 / Fold change vs veh, ZNF638 /// ZNF638-IT1 / RFU, PANK3 / Fold change vs veh, PANK3 / RFU, SH3YL1 / Fold change vs veh, SH3YL1 / RFU, ZEB2 / Fold change vs veh, ZEB2 / RFU, NRIP1 / Fold change vs veh, NRIP1 / RFU, PTTG1IP / Fold change vs veh, PTTG1IP / RFU, CAPN2 / Fold change vs veh, CAPN2 / RFU, MED14 / Fold change vs veh, MED14 / RFU, SNORA58 / Fold change vs veh, SNORA58 / RFU, C1orf63 / Fold change vs veh, C1orf63 / RFU, LRRFIP1 / Fold change vs veh, LRRFIP1 / RFU, NDUFAF7 / Fold change vs veh, NDUFAF7 / RFU, SLC12A2 / Fold change vs veh, SLC12A2 / RFU, IBTK / Fold change vs veh, IBTK / RFU, ESF1 / Fold change vs veh, ESF1 / Fold change vs veh, TMEM50B / RFU, TAOK1 / Fold change vs veh, TAOK1 / RFU, ACBD3 / Fold change vs veh, ACBD3 / RFU, TMA16 / Fold change vs veh, TMA16 / RFU, RWDD3 / Fold change vs veh, RWDD3 / RFU, BCAT1 / Fold change vs veh, BCAT1 / RFU, EDEM3 / Fold change vs veh, EDEM3 / RFU, TMEM33 / Fold change vs veh, TMEM33 / RFU, WDR75 / Fold change vs veh, WDR75 / RFU, AHCTF1 / Fold change vs veh, AHCTF1 / RFU, TFRC / Fold change vs veh, TFRC / RFU, ZDHHC17 / Fold change vs veh, ZDHHC17 / RFU, NOM1 / Fold change vs veh, NOM1 / RFU, ARL8B / Fold change vs veh, ARL8B / RFU, ZBTB11 / Fold change vs veh, ZBTB11 / RFU, TAMM41 / Fold change vs veh, TAMM41 / RFU, KIAA1704 /// LOC100996395 / Fold change vs veh, KIAA1704 /// LOC100996395 / RFU, ING1 / Fold change vs veh, ING1 / RFU, TRMT61B / Fold change vs veh, TRMT61B / RFU, FUBP3 / Fold change vs veh, FUBP3 / RFU, TP53 / Fold change vs veh, TP53 / RFU, TNKS2 / Fold change vs veh, TNKS2 / RFU, ZFP14 / Fold change vs veh, ZFP14 / RFU, ACTR2 / Fold change vs veh, ACTR2 / RFU, PPP3R1 / Fold change vs veh, PPP3R1 / RFU, PIK3R1 / Fold change vs veh, PIK3R1 / RFU, HNRNPA1 / Fold change vs veh, HNRNPA1 / RFU, RNF170 / Fold change vs veh, RNF170 / RFU, ZNF28 / Fold change vs veh, ZNF28 / RFU, RNGTT / Fold change vs veh, RNGTT / RFU, OGT / Fold change vs veh, OGT / RFU, BRD1 / Fold change vs veh, BRD1 / RFU, MARS / Fold change vs veh, MARS / RFU, ZNF655 / Fold change vs veh, ZNF655 / RFU, FAHD1 / Fold change vs veh, FAHD1 / RFU, BDP1 / Fold change vs veh, BDP1 / RFU, LRRCC1 / Fold change vs veh, LRRCC1 / RFU, ARID1A / Fold change vs veh, ARID1A / RFU, ZNF146 / Fold change vs veh, ZNF146 / RFU, ZNF330 / Fold change vs veh, ZNF330 / RFU, GPN3 / Fold change vs veh, GPN3 / RFU, C9orf123 / Fold change vs veh, C9orf123 / RFU, N4BP2L2 / Fold change vs veh, N4BP2L2 / RFU, ARFIP1 / Fold change vs veh, ARFIP1 / RFU, FAM179B / Fold change vs veh, FAM179B / RFU, BCL10 / Fold change vs veh, BCL10 / RFU, UHRF1BP1L / Fold change vs veh, UHRF1BP1L / RFU, BET1 / Fold change vs veh, BET1 / RFU, CNOT2 / Fold change vs veh, CNOT2 / RFU, ZNF268 / Fold change vs veh, ZNF268 / Fold change vs veh, ZNF507 / RFU, DGCR2 / Fold change vs veh, DGCR2 / RFU, WDSUB1 / Fold change vs veh, WDSUB1 / Fold change vs veh, HSP90B1 /// MIR3652 / RFU, ADSS / Fold change vs veh, ADSS / RFU, GK / Fold change vs veh, GK / RFU, ZNF148 / Fold change vs veh, ZNF148 / RFU, TAF9 / Fold change vs veh, TAF9 / RFU, SLC1A5 / Fold change vs veh, SLC1A5 / RFU, SLMO2 / Fold change vs veh, SLMO2 / RFU, ABCC4 / Fold change vs veh, ABCC4 / RFU, LOC101060439 /// RAP1B / Fold change vs veh, LOC101060439 /// RAP1B / RFU, RFX7 / Fold change vs veh, RFX7 / RFU, GTPBP10 / Fold change vs veh, GTPBP10 / RFU, CNEP1R1 / Fold change vs veh, CNEP1R1 / RFU, BIVM-ERCC5 /// ERCC5 / Fold change vs veh, BIVM-ERCC5 /// ERCC5 / RFU, ILF3 / Fold change vs veh, ILF3 / RFU 11762660_at / Fold change /veh 11762660_at / RFU VCAN (11757783_s_at) / Fold change /veh VCAN (11757783_s_at) / RFU DDX43 (11728927_at) / Fold change /veh DDX43 (11728927_at) / RFU KRT8 (11758188_x_at) / Fold change /veh KRT8 (11758188_x_at) / RFU NKD1 (11759106_at) / Fold change /veh NKD1 (11759106_at) / RFU SRD5A1 (11742802_a_at) / Fold change /veh SRD5A1 (11742802_a_at) / RFU TPSAB1 /// TPSB2 (11721975_s_at) / Fold change /veh TPSAB1 /// TPSB2 (11721975_s_at) / RFU GSTM3 (11746129_a_at) / Fold change /veh GSTM3 (11746129_a_at) / RFU IL23R (11737362_x_at) / Fold change /veh IL23R (11737362_x_at) / RFU TMEM51 (11727254_a_at) / Fold change /veh TMEM51 (11727254_a_at) / RFU PIWIL2 (11732686_x_at) / Fold change /veh PIWIL2 (11732686_x_at) / RFU ORM1 (11744905_x_at) / Fold change /veh ORM1 (11744905_x_at) / RFU CCDC152 (11743942_at) / Fold change /veh CCDC152 (11743942_at) / RFU ECM1 (11717891_a_at) / Fold change /veh ECM1 (11717891_a_at) / RFU IL23R (11748794_a_at) / Fold change /veh IL23R (11748794_a_at) / RFU TNFAIP8L3 (11732012_x_at) / Fold change /veh TNFAIP8L3 (11732012_x_at) / RFU MBOAT4 (11741988_at) / Fold change /veh MBOAT4 (11741988_at) / RFU 11764193_at / Fold change /veh 11764193_at / RFU TMEM53 (11763286_at) / Fold change /veh TMEM53 (11763286_at) / RFU MAGEB2 (11727129_at) / Fold change /veh MAGEB2 (11727129_at) / RFU TMEM200A (11744735_a_at) / Fold change /veh TMEM200A (11744735_a_at) / RFU CCDC152 (11751479_a_at) / Fold change /veh CCDC152 (11751479_a_at) / RFU FAM211A (11726209_a_at) / Fold change /veh FAM211A (11726209_a_at) / RFU RGS16 (11746705_a_at) / Fold change /veh RGS16 (11746705_a_at) / RFU VCAN (11755009_s_at) / Fold change /veh VCAN (11755009_s_at) / RFU RHOB (11743442_s_at) / Fold change /veh RHOB (11743442_s_at) / RFU RGS16 (11720943_a_at) / Fold change /veh RGS16 (11720943_a_at) / RFU RGS16 (11720944_at) / Fold change /veh RGS16 (11720944_at) / RFU, VPS4B / Fold change vs veh, VPS4B / RFU, CREB1 / Fold change vs veh, CREB1 / RFU, DNAJC13 / Fold change vs veh, DNAJC13 / RFU, GNAQ / Fold change vs veh, GNAQ / RFU, CDK5R1 / Fold change vs veh, CDK5R1 / RFU, ZRANB3 / Fold change vs veh, ZRANB3 / RFU, CUL4A / Fold change vs veh, CUL4A / RFU, CCNY / Fold change vs veh, CCNY / RFU, UFL1 / Fold change vs veh, UFL1 / RFU, COG3 / Fold change vs veh, COG3 / RFU, DIAPH2 / Fold change vs veh, DIAPH2 / RFU, SKA2 / Fold change vs veh, SKA2 / RFU, AFF3 / Fold change vs veh, AFF3 / RFU, LMF1 / Fold change vs veh, LMF1 / RFU, IPO11 / Fold change vs veh, IPO11 / RFU, DFFB / Fold change vs veh, DFFB / RFU, FOXP1 / Fold change vs veh, FOXP1 / RFU, CARD8 / Fold change vs veh, CARD8 / RFU, STRN3 / Fold change vs veh, STRN3 / RFU, ADK / Fold change vs veh, ADK / RFU, RASSF2 / Fold change vs veh, RASSF2 / RFU, WIPF1 / Fold change vs veh, WIPF1 / RFU, LARP1B / Fold change vs veh, LARP1B / RFU, RASA1 / Fold change vs veh, RASA1 / RFU, RB1 / Fold change vs veh, RB1 / RFU, PPFIA1 / Fold change vs veh, PPFIA1 / RFU, MAT2A / Fold change vs veh, MAT2A / RFU, CCT5 / Fold change vs veh, CCT5 / RFU, WDR92 / Fold change vs veh, WDR92 / RFU, CUX1 / Fold change vs veh, CUX1 / RFU, TTC7A / Fold change vs veh, TTC7A / RFU, TMEM135 / Fold change vs veh, TMEM135 / RFU, DEPTOR / Fold change vs veh, DEPTOR / RFU, CPM / Fold change vs veh, CPM / RFU, DNAJB6 / Fold change vs veh, DNAJB6 / RFU, CACNA2D3 / Fold change vs veh, CACNA2D3 / RFU, DTX4 / Fold change vs veh, DTX4 / RFU, TFCP2 / Fold change vs veh, TFCP2 / RFU, GMCL1 /// GMCL1P1 / Fold change vs veh, GMCL1 /// GMCL1P1 / RFU, AEBP2 / Fold change vs veh, AEBP2 / RFU, SNHG1 /// SNORD22 /// SNORD25 /// SNORD26 /// SNORD27 /// SNORD28 /// SNORD29 /// SNORD31 / Fold change vs veh, SNHG1 /// SNORD22 /// SNORD25 /// SNORD26 /// SNORD27 /// SNORD28 /// SNORD29 /// SNORD31 / Fold change (Aza/veh), C12orf56 (ProbeSet 11735607_a_at) / Fold change (ACY-1035/veh), C12orf56 (ProbeSet 11735607_a_at) / Fold change (Aza/veh), FGFR1OP (ProbeSet 11751329_s_at) / Fold change (ACY-1035/veh), FGFR1OP (ProbeSet 11751329_s_at) / Fold change (Aza/veh), VPS36 (ProbeSet 11739960_a_at) / Fold change (ACY-1035/veh), VPS36 (ProbeSet 11739960_a_at) / RFU SYPL1 (11715823_x_at) / Fold change /veh SYPL1 (11715823_x_at) / RFU IGFBP7 (11715501_s_at) / Fold change /veh IGFBP7 (11715501_s_at) / RFU REEP3 (11722064_at) / Fold change /veh REEP3 (11722064_at) / RFU IGLL1 (11728026_x_at) / Fold change /veh IGLL1 (11728026_x_at): dose or concentration left out as unconfirmed
Settings: MV-4-11 cells, 48 hours

With `Nc1ncn([C@@H]2O[C@H](CO)[C@@H](O)[C@H]2O)c(=O)n1` [azacitidine] the “RFU GIMAP4 (11747438_a_at)” value was 6.50 RFU.

From publication PMC5218480 (PLoS ONE, 2017)
